Experimental data taken from patent US20240317762A1, “PHTHALAZINONE-BASED PARP-1 INHIBITORS” (Oregon Health & Science University, priority 2021, published 2024).

How the values were obtained:
HEK 293T cells [1] = test: analysis of cell cycle (DAPI, flow cytometry)
Description: After the indicated treatments, cells were washed twice with 1× PBS, trypsinized off of the plate, and washed an additional 2 times with 1×PBS. Cells were then permeabilized using 70% cold ethanol while vortexing before incubating for 30 min at 4° C. Cells were then washed three times with 1×PBS and counted using a hemocytometer to create a final pellet of 1×10^6 cells in for each inhibitor condition. 500 μl of DAPI solution (1 μg/ml DAPI, 0.1% Triton X-100 in PBS) was added to each cell pellet and incubated on ice for 30 min before being analyzed by flow cytometry using a BD Canto II. All data was analyzed on FlowJo software, gating for 20,000 singlet events. Manual cell cycle gates were set onto the DMSO control data using Watson modeling as reference. These gates were applied to all treatment conditions to obtain quantitative analysis.
Error bars represent SEM. […] Caspase-Glo 3/7 reagent was added to each well and luminescence was read after 30 minutes. […] Error bars represent SEM. […] Cell cycle was analyzed by flow cytometry (20,000 singlet events) and cell cycle statistics were calculated in FlowJo software against DMSO Watson modeling (n=3). FIG. 3F) DNA synthesis was measured using EdU incorporation. […] EdU incorporation was labelled using TAMRA azide click-chemistry and imaged at 20×. Mean intensity of TAMRA signal within DAPI masks analyzed using Zen software (n>3900 cells over 2 replicates). Values are normalized to the average DMSO control within each replicate. Error bars represent SEM. Statistical significance calculated via one-way ANOVA with Tukey's multiple comparisons test (p<0.05).

HEK 293T cells [2] = test: cell proliferation (MTT) assay; assay type: cell-based, human; conditions: MTT, 72 h; for EC50: Homo sapiens, HEK-293T, read-out: EC50 cell growth
Description: HEK 293T or HEK 293 PARP-1 KO cells were seeded in a 96 well plate at 1000-2000 cells per well. Following an overnight incubation, MTT reagent, 3-(4,5-dimethylthiazol-2-yl)-2,5-diphenyltetrazolium bromide, or a dosage curve of indicated inhibitor was added to each well in quadruplicate. Following a 3-hour incubation at 37° C., wells containing MTT reagent, were aspirated and lysed with 100 μl DMSO. These wells acting as a no growth control were collected, saved @ −20° C., and replaced with 100 μl water. The plate was placed back into the incubator for a total of 72 hours of inhibitor treatment prior to MTT reagent being added for a final time. Following a 3 hour incubation with the reagent, wells were aspirated, and 100 μl DMSO were added to each well, while the no growth control sample was added back to the plate. Absorbance was read on a SpectraMaxi3 plate reader (Molecular Devices). Percent growth was calculated for analysis. Statistical significance was assigned using individual t-tests between conditions for each inhibitor dosage.
(§1) Error bars represent SEM. […] Error bars represent SEM. […] Error bars represent SEM.

[3] = system: caspase-3/7 activity in HEK 293 cells; test: cell apoptosis assay (Caspase-Glo 3/7); assay type: cell-based, human; conditions: 1 μM, 72 hours
Description: HEK 293 or HEK 293 PARP-1 KO cells were seeded in a 96 well plate at 1000-2000 cells per well, a media only “blank” was also included. Following an overnight incubation, cells were treated with 1 μM of indicated inhibitors. “Blank” wells were treated with DMSO. Following a 72 hour inhibitor treatment, the Caspase-Glo 3/7 Assay was completed following the manufacturer instructions (Promega, #G8091). Luminescence was read on a SpectraMax i3 plate reader (Molecular Devices).
as §1

[4] = system: pan-nuclear γH2AX in HEK 293T cells; test: γH2AX immunofluorescence; assay type: cell-based, human
Description: HEK 293T or HEK 293 PARP-1 KO cells were seeded onto poly-d-lysine treated glass coverslips and treated with indicated concentrations of inhibitors for 18 hours. Cells were then washed with 1×PBS and fixed using 4% Sucrose/4% Paraformaldehyde in PBS for 20 minutes. After three washes in 1×PBS, cells were permeabilized in 0.3% Triton X-100 in PBS for 5 minutes followed by an additional three washes in 1×PBS. Coverslips were blocked in 3% BSA/0.1% Triton X-100 in PBS for 1 hour and then placed in primary anti-rabbit phosphoH2Ax antibody (1:200, Cell Signaling) overnight at 4° C. The next morning, cells were washed three times in 1×PBS and treated with blocking solution, 3% BSA/0.1% Triton X-100 in PBS, for 30 minutes before being placed in secondary anti-rabbit Alexa Fluor 647 (1:1000 Jackson Immuno) for 1 hour at RT. After three subsequent 1×PBS washes, coverslips were mounted using ProLong Gold antifade reagent with DAPI (Invitrogen). All immunofluorescence images were taken on a Zeiss ApoTome2 on Axiolmager and analyzed using Zeiss software. Mean intensity of the Alexa Fluor 647 signal was measured after imposing DAPI masks over the nucleus of each cell. All cells within a 20× image, was analyzed (˜3000 cells/condition).
Cell are stained for DAPI and γH2AX. Scale bar indicates 50 μm. FIG. 2B) Quantification of panel a. […] Error bars represent SEM. […] Error bars represent SEM. […] Error bars represent SEM.

[5] = system: Ewing sarcoma cell line EW-8; test: ES-8 viability screen (CellTiter-Glo); assay type: cell-based
Description: Cell viability was measured using the CellTiter-Glo (Promega, G7573) assay and read using an Envision (PerkinElmer) plate reader. Compound source plates (96-well) were prepared by solubilizing each drug in DMSO to a maximum concentration of 1-50 mM, then arraying samples in 10-point dose-response with 3-fold dilution. Positive and negative controls (staurosporine at 10 mM and DMSO, respectively) were added to the source plates. Drug was transferred from the source plate to the assay plate using a Biomek FX (Beckman Coulter) liquid handler equipped with a pin tool which transferred ˜100 nl into a final volume of 100 μl, resulting in ˜1000-fold dilution. At least two biological replicates (assay performed on different day with same drug plate and independent cell preparation) were obtained for each drug. To analyze the assay, the relative light unit signal in each well was first log 2 transformed, then normalized by subtracting the mean of the negative controls wells on each plate.
(§2) FIGS. 6A-6E. […] 0.1 μM ad-olaparib (chemical structure indicated in panel a) was added to the cells for 1 hour before undergoing a UV treatment for 5 minutes in cold PBS. Cells were lysed and sonicated in PBS (1% Triton X-100+1% SDS), clicked with TAMRA-azide and run out on SDS-PAGE. The gel was imaged for TAMRA and probed for PARP-1 (Bethyl Laboratories), and alpha-tubulin (X). FIGS. 6B, 6D) Quantification of western blot images. TAMRA or ADPr values are normalized to PARP-1 within each replicate and plotted as percentage compared to DMSO. Error bars indicate SEM (n=3-4). Statistical significance of off-rate calculated via multiple t-tests (p<0.05). […] Cells were subsequently treated with PARGi (10 μM) for 30 minutes, lysed using RIPA buffer, run out on SDS-PAGE, and probed for ADPr (Cell Signaling) and PARP-1 (Bethyl Laboratories). FIG. 6E) ES-8 cells were treated with indicated concentration of inhibitors for 72 hours before measuring cell viability using the CellTiter-Glo kit (Promega G7573). IC50 values were calculated using R statistical software.

PARP-1 [6] = biological target: T1, PARP-1 (Homo sapiens, UniProt P09874); test: in vitro PARP-1 auto-PARylation assay (SRPK2 plate assay); assay type: biochemical; set-up: The full-length WT PARP-1 protein used in these assays; made in house
Description: IC50 SRPK2 Plate Assays were performed as previously described (21). Log(inhibitor) versus response curves were fit using non-linear regression with variable slope. Mean IC50 values for each compound were derived from a minimum of three separate replicates.

PARP-1 [7] = biological target: T1, PARP-1; test: fluorescence polarization DNA binding affinity assay; conditions: 5 μM inhibitor; compared to DMSO control
Description: The full-length WT PARP-1 protein used in these assays was purified as described previously (30).

PARP-1 [8] = biological target: T1, PARP-1; test: in-cell competition labeling with ad-olaparib photoaffinity probe; assay type: cell-based
Description: Photocrosslinking in intact cells. HEK293 CRL and PARP-1 KO cells were grown in DMEM for 2 days in a 60 mm dish for 2 days to reach 80-90% confluency. […] Cells were then washed once with PBS, covered with PBS and irradiated for 5 min in the RPR-100 Photochemical Reactor (Rayonet) equipped with 350 nm lamps at 4° C. Cells were lysed on ice in 1% SDS, 1% Triton X-100 and EDTA-free protease inhibitor cocktail (Roche) in PBS for 10 min and then probe sonicated to shear the nuclear DNA. Protein concentration was determined with Bio-Rad Protein assay. The lysate was diluted in PBS to a final Click reaction concentration of 2 mg/mL.
Click Chemistry. Reaction was started by mixing 30 μL of each sample with 15 μL of PBS based 3× Click reaction mixture containing (final concentrations): 100 μM Tris[(1-benzyl-1H-1,2,3triazol-4-yl)methyl]amine (TBTA, Click Chemistry Tools), 1 mM CuSO4, 40 μM tetramethylrhodamine (TAMRA)-azide (Click Chemistry Tools), 1 mM Tris(2-carboxyethyl)phosphine hydrochloride (TCEP, Thermo Fisher) and 15% tert-Butyl alcohol, and let to procced for 1 h at RT while gently shaking. Reactions were stopped by adding 4× Laemmli sample buffer and boiling at 95° C. for 5 min.
In gel fluorescence, western blotting and quantification. Samples were loaded to 8 or 10% SDS-polyacrylamide gels and run until the dye front left the gel. First, in-gel fluorescence was detected with ChemiDoc XRS+ (Biorad) using Rhodamine filter and then the proteins were transferred on nitrocellulose membrane, the membrane was blocked and probed for PARP-1 (1:3000) and alpha-tubulin (1:1000). Both antibodies were from cell signaling. Band intensities we quantified with ImageJ.
as §2

PARP-1 [9] = biological target: T1, PARP-1; test: PARP-1 PARylation after washout (off-rate analysis); assay type: cell-based; conditions: 300 nM, 30 minutes, no washout; read-out: inhibition of PARP-1-mediated PARylation activity prior to washout
Description: For off-rate analysis, after 30 minute pre-treatment with indicated inhibitors, cells were washed once before incubating for 0, 3, 6, or 12 hours in fresh media. Following release times, cells were incubated with PDD 00017273 (10 μM) for 30 minutes before proceeding using the same western blot protocol detailed above. Statistical significance was established through multiple unpaired t-tests with nonlinear regression fit analysis.
as §2, with “FIG. 6E) ES-8 cells were treated with indicated concentration of inhibitors for 72 hours before measuring cell viability using the CellTiter-Glo kit (Promega G7573).” left out

PARP-1 [10] = biological target: T1, PARP-1; test: PARP-1 auto-PARylation activity assay in cells; assay type: cell-based
Description: Cells were washed with PBS, and lysed in RIPA buffer (50 mM Tris-HCl [pH 8.0], 150 mM NaCl, 0.1% SDS, 1% Triton X-100, 1× cOmplete™ protease inhibitors (Roche), and 1 μM Veliparib). […] Following quantification, 4× Laemmli sample buffer with 5% β-mercaptoethanol was added to 25-50 μg of protein.
Membrane blots were blocked with 5% milk-PBST for 1 h at RT, followed by incubation with a rabbit pan-ADP-ribose binding reagent (Cell Signaling), a rabbit PARP-1 antibody (Bethyl Laboratories), or a mouse b-actin antibody (Santa Cruz Biotechnology) for 2 h at RT, followed by incubation with HRP-conjugated secondary antibodies. […] Blots were imaged for chemiluminescent signal on a ChemiDoc MP system (BioRad). Statistical significance was established through multiple unpaired t-tests with nonlinear regression fit analysis.
FIGS. 5A-5F. […] An unlabeled competitor was added and the decrease in fluorescence polarization was measured across time. […] Error bars represent SEM. […] Error bars represent SEM. […] Cells were subsequently lysed using RIPA buffer, run out on SDS-PAGE, and probed for ADPr (Cell Signaling) and PARP-1 (Bethyl Laboratories). FIG. 5F) Quantification of western blot images. ADPr values are normalized to PARP-1 within each replicate and plotted as percentage compared to DMSO. Error bars indicate SEM (n=3).

[11] = system: PARP-1 (full-length WT) (Homo sapiens); test: FP; conditions: 5 uM AZ0108 increased affinity 4-fold over no inhibitor; olaparib only modest effect

T1 sequence (P09874 whole entry): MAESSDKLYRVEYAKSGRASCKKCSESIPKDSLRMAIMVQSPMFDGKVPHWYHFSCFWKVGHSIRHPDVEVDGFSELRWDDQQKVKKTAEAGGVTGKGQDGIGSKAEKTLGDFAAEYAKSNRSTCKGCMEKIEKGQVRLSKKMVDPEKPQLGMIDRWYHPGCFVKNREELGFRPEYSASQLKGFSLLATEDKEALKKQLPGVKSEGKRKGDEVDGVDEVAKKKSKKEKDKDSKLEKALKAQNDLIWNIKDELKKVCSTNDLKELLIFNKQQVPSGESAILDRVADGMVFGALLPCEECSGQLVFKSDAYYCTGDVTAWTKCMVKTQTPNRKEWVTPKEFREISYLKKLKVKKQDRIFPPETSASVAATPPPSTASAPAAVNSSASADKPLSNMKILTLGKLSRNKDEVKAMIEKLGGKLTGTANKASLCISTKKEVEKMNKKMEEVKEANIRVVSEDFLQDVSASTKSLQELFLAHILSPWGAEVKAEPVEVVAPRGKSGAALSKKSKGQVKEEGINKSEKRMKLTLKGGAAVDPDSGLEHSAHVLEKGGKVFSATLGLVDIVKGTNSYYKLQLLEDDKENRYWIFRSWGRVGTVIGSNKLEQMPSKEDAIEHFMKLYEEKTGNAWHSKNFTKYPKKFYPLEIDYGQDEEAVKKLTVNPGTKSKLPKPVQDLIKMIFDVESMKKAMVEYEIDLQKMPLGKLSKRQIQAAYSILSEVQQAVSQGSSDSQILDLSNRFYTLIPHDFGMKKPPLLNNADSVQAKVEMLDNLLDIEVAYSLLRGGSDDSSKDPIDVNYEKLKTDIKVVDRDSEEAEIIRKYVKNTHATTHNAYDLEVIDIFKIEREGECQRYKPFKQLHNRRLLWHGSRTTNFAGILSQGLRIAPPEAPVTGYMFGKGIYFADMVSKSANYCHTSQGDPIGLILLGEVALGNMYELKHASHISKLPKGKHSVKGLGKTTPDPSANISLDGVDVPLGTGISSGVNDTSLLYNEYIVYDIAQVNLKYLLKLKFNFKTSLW

O=C(c1cc(Cc2n[nH]c(=O)c3ccccc23)ccc1F)N1CCN(C(=O)C2CC2)CC1 [Olaparib]
G1 (HEK 293T cells [1]; DAPI intensity, 18 hours): 19.4% | G2 (HEK 293T cells [1]; DAPI intensity, 18 hours): 9.50% | S (HEK 293T cells [1]; DAPI intensity, 18 hours): 54.0% | effect on cell cycle (HEK 293T cells [1]; FACS, DAPI fluorescence): did not alter the cell cycle | EC50 (HEK 293T cells [2]): ~10000 nM | reduction of caspase-3/7 activity [3]: did not significantly affect | pan-nuclear γH2AX induction ([4]; HEK 293T cells, 18 hours): did not induce either pan-nuclear γH2AX or γH2AX foci | effect of co-treatment on AZ0108-induced pan-nuclear γH2AX ([4]; co-treatment with AZ0108): reversed the effects of AZ0108 on pan-nuclear γH2AX

C[C@H]1Cn2c(nnc2C(C)(F)F)CN1C(=O)c1cc(Cc2n[nH]c(=O)c3ccccc23)ccc1F [Pip6, (S)-4-(3-(3-(1,1-difluoroethyl)-6-methyl-5,6,7,8-tetrahydro-[1,2,4]triazolo[4,3-a]pyrazine-7-carbonyl)-4-fluorobenzyl)phthalazin-1(2H)-one]
fold more cytotoxic than AZ0108 in Ewing sarcoma cells [5]: ~80 fold | Fold Difference to Pip6 ([5]; ratio of EC50 values): 1 | EC50 ([5]; viability, 72 h): 0.24 nM | EC50 (nM) ([5]; viability, 72 h): sub-nanomolar | potency against PARP-1 auto-PARylation compared with AZ0108 (PARP-1 [6]): equipotent | effect on the affinity of PARP-1 for nicked DNA (PARP-1 [7]): more pronounced effect on DNA binding than Pip5 | EC50 (HEK 293T cells [2]): 0.94 nM | potency in inhibiting cell growth compared with AZ0108 (HEK 293T cells [2]): substantially more potent than AZ0108 | labeling of PARP-1 by ad-olaparib after pre-treatment (PARP-1 [8]; 10 μM inhibitor, 0.1 μM ad-olaparib): substantially blocked | residence time on PARP-1 compared to AZ0108 (PARP-1 [8]; in cells and in vitro): longer residence time | recovery of labeling of PARP-1 by ad-olaparib after washout (PARP-1 [8]; washout (3 h)): not recovered | inhibition at 0.3 µM (PARP-1 [9]): > 90% | fold more potent than AZ0108 in inhibiting PARP-1 PARylation in HEK 293 cells (PARP-1 [10]): ~20 fold | EC50 (PARP-1 [10]; 30 min inhibitor, then PARG inhibitor PDD00017273, read-out: EC50 inhibiting PARP-1 PARylation in HEK 293 cells): 2.3 nM | IC50 (PARP-1 [10]; FIG. 5F, nonlinear regression, read-out: IC50 of dose curves, quantification of western blot (ADPr normalized to PARP-1)): 2.26 nM

dumbbell DNA probe with central nick
binding signal [11]: 4 fold
